From patent US20230348459A1, “PYRROLIDINE COMPOUND AND USE THEREOF” (SIMCERE PHARMACEUTICAL CO., LTD., priority 2020, published 2023)
Values after ≈ are worked out from the molar mass of the structure shown.

Legend:
[1] = target: CYP2D6 (Homo sapiens (Human), UniProt P10635); experiment: Inhibition of CYP2D6 enzymatic activity in human liver microsomes; type: in vitro ADME; details: substrate dextromethorphan
Description: The inhibition of CYP2C9 and CYP2D6 enzymatic activities by the compounds of the present invention was determined by the following test method.
• 1. Human liver microsomes (Corning 452117) • 2. NADPH (Solarbio 705Y021) • 3. Positive substrates diclofenac (Sigma SLBV3438), dextromethorphan (TRC 3-EDO-175-1) and midazolam (Cerilliant FE01161704) • 4. Positive inhibitors sulfaphenazole (D. Ehrenstorfer GmbH 109012), quinidine (TCI WEODL-RE) and ketoconazole (Sigma 100M1091V) • 5. AB Sciex Triple Quad 5500 liquid chromatography-mass spectrometry
1. Preparation of 100 mM phosphate buffered saline (PBS): 7.098 g of Na2HPO4 was weighed, 500 mL of pure water was added and subjected to ultrasonic dissolution to obtain solution A. 3.400 g of KH2PO4 was weighed, 250 mL of pure water was added and subjected to ultrasonic dissolution to obtain solution B. Solution A was placed on a stirrer and solution B was slowly added until pH reaches 7.4 to prepare 100 mM PBS buffer.
2. Preparation of 10 mM NADPH solution with 100 mM PBS buffer. 10 mM stock solution of compounds of the invention was diluted with DMSO to obtain a 200× concentration of compound working solution (6000, 2000, 600, 200, 60, 20, 0 µM). The stock solution of positive inhibitors was diluted with DMSO to obtain a 200× concentration of positive inhibitor working solution (sulfaphenazole, 1000, 300, 100, 30, 10, 3, 0 µM; quinidine/ketoconazole, 100, 30, 10, 3, 1, 0.3, 0 µM). A 200 × concentration of substrate working solution (120 µM of diclofenac, 400 µM of dextromethorphan, and 200 µM of midazolam) was prepared in water, acetonitrile, or acetonitrile/methanol.
3. 2 µl of 20 mg/ml liver microsome solution, 1 µl of substrate working solution, 1 µl of compound working solution and 176 µl of PBS buffer were taken, mixed uniformly, and pre-incubated in a 37° C. water bath for 15 minutes. […]
The IC50 values of the compounds of the present invention against CYP2C9 and CYP2D6 were calculated by Excel XLfit 5.3.1.3.

[2] = Apparent solubility in phosphate buffer at pH 7.4; type: physicochemical; details: aqueous buffer, kinetic from dmso stock, phosphate buffer pH 7.4, 25° C.
Description: The compounds to be tested were prepared according to the method described. The control drug progesterone was purchased from Sigma. Phosphate buffer with pH 7.4 was prepared in our laboratory. Acetonitrile and methanol were purchased from Fisher. Other reagents were purchased from the market.
10 mM stock solution of substance to be tested and control drug progesterone was prepared with DMSO.
30 µL of 10 mM stock solution of substance to be tested was taken, and added to the corresponding position of the corresponding 96-well plate in the specified order. 970 µL of phosphate buffer (pH 7.4) was added to the corresponding vial in the sample plate. The experiment was performed in parallel duplicate. A stirring rod was added to each vial and a polytetrafluoroethylene/silicone stopper was covered thereon. The sample tray was then placed in an Eppendorf Thermomixer Comfort and shaken at 1100 rpm for 2 hours at 25° C. After 2 hours, the stopper was removed, and the stirring rod was sucked away by a large magnet, then the sample was transferred from the sample plate to the filter plate. A vacuum pump was used to generate negative pressure and the sample was filtered. 5 µL of the filtrate was transferred to a new sample plate, and then 5 µL of DMSO and 490 µL of 50% ACN(IS).H2O (internal standard acetonitrile : water = 1 : 1) were added. Depending on the peak shape, it may be possible to dilute the sample diluent with a certain proportion of 50% ACN(IS).H2O for better peak shape. […]
The loading plate was placed in the loading tray of the autosampler, and the sample was evaluated by liquid chromatography-mass spectrometry analysis.
All calculations are performed via Microsoft Excel. Analysis and quantification of the sample filtrate was accomplished by using the liquid chromatography-mass spectrometry to characterize and quantify the peaks of the standards with known concentrations. The apparent solubility of the compounds of the present invention in phosphate buffer (PH 7.4) was calculated.

Sequence of CYP2D6 (P10635 whole entry): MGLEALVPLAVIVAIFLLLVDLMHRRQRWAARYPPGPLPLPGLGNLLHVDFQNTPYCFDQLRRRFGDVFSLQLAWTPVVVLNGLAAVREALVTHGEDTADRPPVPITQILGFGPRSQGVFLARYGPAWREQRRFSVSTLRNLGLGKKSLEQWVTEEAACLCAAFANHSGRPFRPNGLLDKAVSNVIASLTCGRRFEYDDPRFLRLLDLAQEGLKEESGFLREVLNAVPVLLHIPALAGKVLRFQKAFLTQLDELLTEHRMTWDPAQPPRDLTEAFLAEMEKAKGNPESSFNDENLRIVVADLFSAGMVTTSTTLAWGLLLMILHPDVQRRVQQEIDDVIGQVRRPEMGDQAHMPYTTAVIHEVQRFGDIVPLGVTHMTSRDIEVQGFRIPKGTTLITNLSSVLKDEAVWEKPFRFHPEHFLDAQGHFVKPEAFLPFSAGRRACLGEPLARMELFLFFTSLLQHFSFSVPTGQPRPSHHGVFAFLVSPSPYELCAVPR

Row | SMILES | IC50 [1] [µM] | solubility at 2 h [2] [µM]
1 | C[C@@H]1Cc2c([nH]c3ccccc23)C(c2c(F)cc(N[C@H]3CCN(CCCF)C3)cc2F)N1CC(F)(F)F (stereo in doubt) [Example 4, (S)-N-(3,5-difluoro-4-((1S,3R)-3-methyl-2-(2,2,2-trifluoroethyl)-2,3,4,9-tetrahydro-1H-pyridino[3,4-b]indol-1-yl)phenyl)-1-(3-fluoropropyl)pyrrolidin-3-amine] | 27 | < 0.3
2 | C[C@@H]1Cc2c([nH]c3ccccc23)C(c2c(F)cc(N[C@H]3CCN(CCCF)C3)cc2F)N1CC(F)(F)CO (stereo in doubt) [Example 7, 3-((1S,3R)-1-(2,6-difluoro-4-(((S)-1-(3-fluoropropyl)pyrrolidin-3-yl)amino)phenyl)-3-methyl-3,4-dihydro-1H-pyridino [3,4-b]indole-2(9H)-yl)-2,2-difluoropropane-1-ol] | 23 | 4 (≈ 2.15 µg/mL)
3 | C[C@@H]1Cc2c([nH]c3ccccc23)[C@@H](c2ccc(N[C@H]3CCN(CCCF)C3)cn2)N1CC(F)(F)F [Example 3, N-((S)-1-(3-fluoropropyl)pyrrolidin-3-yl)-6-((1S,3R)-3-methyl-2-(2,2,2-trifluoroethyl)-2,3,4,9-tetrahydro-1H-pyridino[3,4-b]indol-1-yl)pyridine-3-amine] | > 30 | 92 (≈ 45 µg/mL)
